Cc1cccc([N+](=O)[O-])c1N
solubility (mole fraction)
Conditions	in 1,4-dioxane	in acetone	in acetonitrile	in cyclohexane	in ethanol	in ethyl acetate	in isopropanol	in methanol	in n-propanol	in toluene
278.15 K	–	0.113	0.0418	–	0.0102	0.0841	0.0086	0.00739	0.0108	0.0237
280.65 K	–	0.122	0.0466	–	0.0112	0.0924	0.00945	0.00829	0.012	0.0267
283.15 K	0.18	0.132	0.0529	0.00103	0.0125	0.101	0.0105	0.00916	0.0133	0.0301
285.65 K	0.19	0.142	0.0589	0.00118	0.0139	0.11	0.0119	0.0102	0.0149	0.0336
288.15 K	0.201	0.153	0.067	0.00136	0.0154	0.121	0.0133	0.0113	0.0165	0.0375
290.65 K	0.211	0.165	0.0753	0.00158	0.017	0.131	0.0147	0.0124	0.0183	0.0417
293.15 K	0.223	0.177	0.0844	0.00181	0.019	0.142	0.0163	0.014	0.0203	0.0469
295.65 K	0.236	0.19	0.0954	0.00211	0.021	0.155	0.0183	0.0155	0.0225	0.0521
298.15 K	0.249	0.203	0.106	0.00242	0.0233	0.168	0.0202	0.0172	0.0248	0.0581
300.65 K	0.262	0.217	0.119	0.00279	0.0256	0.182	0.0225	0.0192	0.0275	0.0647
303.15 K	0.277	0.233	0.133	0.00318	0.0284	0.196	0.0249	0.0212	0.0305	0.0719
305.65 K	0.291	0.249	0.148	0.00369	0.0314	0.212	0.0277	0.0234	0.0336	0.0804
308.15 K	0.306	0.265	0.165	0.00424	0.0346	0.228	0.0306	0.0261	0.0371	0.0893
310.65 K	0.323	0.283	0.183	0.00489	0.0381	0.246	0.0339	0.0288	0.041	0.0993
313.15 K	0.339	0.301	0.203	0.00562	0.042	0.265	0.0376	0.032	0.0451	0.11

Source: BigSolDB 2.1
